Experimental findings from US11608338B2, “Imidazolonylquinolines and the use thereof as ATM kinase inhibitors” (priority 2015, dated 2023) are described below.

Type in all cases: biochemical
For one assay, the target named is PI3K p110δ/p85α (human) (Homo sapiens (Human), UniProt O00329). Put plainly: PI3K p110δ/p85α (human), non-radioactive assay (HTRF). The note with it: ATM versus PI3Kdelta. The method, then: PI3K p110δ/p85α (Human), Non-Radioactive Assay
(§1) PI3K p110δ/p85α (human) was incubated in an assay buffer comprising 10 μM phosphatidylinositol 4,5-bisphosphate and MgATP (concentration as necessary). The reaction was initiated by addition of MgATP solution. After an incubation time of 30 min at room temperature, the reaction was stopped by addition of a solution consisting of EDTA and biotinylated phosphatidylinositol 3,4,5-trisphosphate. Finally, the detection buffer, consisting of a europium-labelled anti-GST monoclonal antibody, a GST-labelled GRP1 PH domain and streptavidin allophycocyanin, was added. The plate was read out via homogeneous time-resolved fluorescence (HTRF) and the corresponding signals were evaluated via the formula HTRF=10000×(Em665 nm/Em620 nm).

Another assay addresses PI3K (p120γ) (human) (Homo sapiens (Human), UniProt P48736). Nature of the assay: PI3K (p120γ) (human), non-radioactive assay (HTRF). The note with it: ATM versus PI3Kgamma. On the procedure: PI3K (p120γ) (Human), Non-Radioactive Assay
as §1, with “(p120γ)” for “p110δ/p85α”, “nm). • MgATP=magnesium 5′-O-[hydroxy({[(hydroxyphosphinato)oxy]phosphinato}oxy)phosphoryl]adenosine • MgCl2=magnesium dichloride • EGTA=ethylene glycol bis(aminoethyl ether) N,N,N′,N′-tetraacetic acid • Tween 20=polysorbate 20 Medicament/Pharmaceutical Composition” for “nm).”

The next assay has as its target PI3K p110α/p85α (human) (Homo sapiens (Human), UniProt P42336). Put plainly: PI3K p110α/p85α (human), non-radioactive assay (HTRF). The following applies: ATM versus PI3Kalpha. The method, then: PI3K p110α/p85α (Human), Non-Radioactive Assay
as §1, with “p110α/p85α” for “p110δ/p85α”, “After” for “After an”, “incubation” for “incubation time of 30 min”, “temperature for 40 minutes,” for “temperature,”
Background: TR-FRET usually uses a lanthanide donor and a delayed reading to cut background.

The target in another assay is mTOR (human) (Homo sapiens (Human), UniProt P42345). Put plainly: mTOR (human) radiometric kinase assay. The following applies: ATM versus mTOR. On the procedure: Furthermore, the effect, in particular inhibition, of other kinases and thus the selectivity of the compounds according to the invention can be determined with the aid of the following assay:
mTOR (human) was incubated with 50 mM HEPES pH 7.5, 1 mM EGTA, 0.01% Tween 20, 2 mg/ml of the substrate, 3 mM MnCl2 and [γ-^33P-ATP] (specific activity approximately 500 cpm/pmol, concentration as necessary). The reaction was initiated by addition of MgATP solution. After incubation at room temperature for 40 minutes, the reaction was stopped by addition of 3% phosphoric acid. 10 μl of the reaction solution were then transferred dropwise onto a P30 filtermat and washed three times for 5 min in 75 mM phosphoric acid and once in methanol, dried and evaluated by means of liquid scintillation counting.

Each structure is given as a SMILES string.

Sequence of PI3K (p120γ) (human) (P48736 whole entry): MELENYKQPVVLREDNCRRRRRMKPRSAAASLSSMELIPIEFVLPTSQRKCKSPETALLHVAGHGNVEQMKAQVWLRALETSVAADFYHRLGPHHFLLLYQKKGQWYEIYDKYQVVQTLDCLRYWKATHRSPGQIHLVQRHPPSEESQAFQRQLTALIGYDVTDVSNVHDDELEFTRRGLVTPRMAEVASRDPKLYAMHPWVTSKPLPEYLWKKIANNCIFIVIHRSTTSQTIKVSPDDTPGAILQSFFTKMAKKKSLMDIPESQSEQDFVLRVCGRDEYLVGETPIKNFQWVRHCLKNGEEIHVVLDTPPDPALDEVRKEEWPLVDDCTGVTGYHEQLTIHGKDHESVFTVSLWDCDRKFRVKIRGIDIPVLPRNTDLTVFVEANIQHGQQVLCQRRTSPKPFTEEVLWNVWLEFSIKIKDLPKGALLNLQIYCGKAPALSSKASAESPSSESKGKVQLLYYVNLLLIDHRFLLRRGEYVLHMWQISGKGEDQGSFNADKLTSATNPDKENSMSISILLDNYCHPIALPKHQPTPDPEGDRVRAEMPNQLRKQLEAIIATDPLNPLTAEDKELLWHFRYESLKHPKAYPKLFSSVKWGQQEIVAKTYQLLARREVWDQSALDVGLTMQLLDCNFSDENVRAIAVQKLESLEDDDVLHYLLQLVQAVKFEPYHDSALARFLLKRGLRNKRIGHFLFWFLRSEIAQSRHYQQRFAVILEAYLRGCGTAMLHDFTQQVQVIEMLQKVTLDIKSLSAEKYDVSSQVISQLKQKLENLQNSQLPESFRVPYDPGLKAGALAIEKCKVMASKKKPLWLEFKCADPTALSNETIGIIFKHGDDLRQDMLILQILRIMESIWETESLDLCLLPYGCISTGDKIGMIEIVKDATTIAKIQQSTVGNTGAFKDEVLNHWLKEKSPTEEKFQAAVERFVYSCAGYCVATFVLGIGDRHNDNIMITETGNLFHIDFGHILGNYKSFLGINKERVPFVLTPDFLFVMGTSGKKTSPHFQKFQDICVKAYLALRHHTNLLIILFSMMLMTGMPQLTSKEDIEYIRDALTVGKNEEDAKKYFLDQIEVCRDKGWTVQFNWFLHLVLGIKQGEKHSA
Sequence of PI3K p110α/p85α (human) (P42336 whole entry): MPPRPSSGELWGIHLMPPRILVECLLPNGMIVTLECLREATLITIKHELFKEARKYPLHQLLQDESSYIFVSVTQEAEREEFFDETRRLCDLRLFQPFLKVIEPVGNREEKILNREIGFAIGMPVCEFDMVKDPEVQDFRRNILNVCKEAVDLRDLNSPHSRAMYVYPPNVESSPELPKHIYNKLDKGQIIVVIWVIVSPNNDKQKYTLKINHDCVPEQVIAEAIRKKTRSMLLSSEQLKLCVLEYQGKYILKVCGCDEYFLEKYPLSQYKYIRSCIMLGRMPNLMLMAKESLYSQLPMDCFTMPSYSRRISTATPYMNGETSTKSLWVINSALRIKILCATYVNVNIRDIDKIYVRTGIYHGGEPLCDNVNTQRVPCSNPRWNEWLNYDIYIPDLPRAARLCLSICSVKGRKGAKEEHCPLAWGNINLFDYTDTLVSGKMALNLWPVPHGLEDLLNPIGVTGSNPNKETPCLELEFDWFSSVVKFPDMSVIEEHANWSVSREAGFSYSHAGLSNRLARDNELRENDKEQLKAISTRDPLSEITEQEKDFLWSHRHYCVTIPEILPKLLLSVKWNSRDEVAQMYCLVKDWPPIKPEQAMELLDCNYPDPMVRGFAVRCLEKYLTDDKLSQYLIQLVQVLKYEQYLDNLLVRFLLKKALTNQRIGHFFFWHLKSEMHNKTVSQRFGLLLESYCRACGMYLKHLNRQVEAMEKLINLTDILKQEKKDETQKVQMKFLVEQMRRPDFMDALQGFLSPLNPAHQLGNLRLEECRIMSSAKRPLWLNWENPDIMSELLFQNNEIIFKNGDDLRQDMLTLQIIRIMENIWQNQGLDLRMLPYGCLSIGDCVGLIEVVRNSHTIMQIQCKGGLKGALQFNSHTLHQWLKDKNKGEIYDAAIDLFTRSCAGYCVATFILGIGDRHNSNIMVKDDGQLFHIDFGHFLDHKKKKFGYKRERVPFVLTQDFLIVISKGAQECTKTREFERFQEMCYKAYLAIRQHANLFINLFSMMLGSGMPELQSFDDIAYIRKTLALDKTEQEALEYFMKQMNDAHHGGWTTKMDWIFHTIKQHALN
Sequence of PI3K p110α/p85α (human) (P27986 whole entry partner): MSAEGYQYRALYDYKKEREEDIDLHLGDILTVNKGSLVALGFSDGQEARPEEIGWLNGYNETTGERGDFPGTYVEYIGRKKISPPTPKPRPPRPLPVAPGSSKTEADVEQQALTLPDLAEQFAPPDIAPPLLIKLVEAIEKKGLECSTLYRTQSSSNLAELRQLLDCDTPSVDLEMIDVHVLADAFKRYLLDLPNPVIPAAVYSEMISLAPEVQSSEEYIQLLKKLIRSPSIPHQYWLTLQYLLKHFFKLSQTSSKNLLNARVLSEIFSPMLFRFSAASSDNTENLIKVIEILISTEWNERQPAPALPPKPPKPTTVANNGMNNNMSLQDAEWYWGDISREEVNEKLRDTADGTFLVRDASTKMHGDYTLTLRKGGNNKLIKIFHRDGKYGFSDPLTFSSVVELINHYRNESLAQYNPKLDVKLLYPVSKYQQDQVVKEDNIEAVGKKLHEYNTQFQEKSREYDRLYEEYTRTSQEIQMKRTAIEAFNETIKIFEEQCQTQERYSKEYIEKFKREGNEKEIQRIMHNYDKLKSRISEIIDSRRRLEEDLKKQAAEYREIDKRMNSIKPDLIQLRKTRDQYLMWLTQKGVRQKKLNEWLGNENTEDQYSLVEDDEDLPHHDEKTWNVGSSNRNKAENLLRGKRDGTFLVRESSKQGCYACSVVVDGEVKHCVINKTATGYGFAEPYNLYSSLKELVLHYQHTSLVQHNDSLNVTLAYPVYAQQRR
Sequence of PI3K p110δ/p85α (human) (O00329 whole entry, the tested form may be a part): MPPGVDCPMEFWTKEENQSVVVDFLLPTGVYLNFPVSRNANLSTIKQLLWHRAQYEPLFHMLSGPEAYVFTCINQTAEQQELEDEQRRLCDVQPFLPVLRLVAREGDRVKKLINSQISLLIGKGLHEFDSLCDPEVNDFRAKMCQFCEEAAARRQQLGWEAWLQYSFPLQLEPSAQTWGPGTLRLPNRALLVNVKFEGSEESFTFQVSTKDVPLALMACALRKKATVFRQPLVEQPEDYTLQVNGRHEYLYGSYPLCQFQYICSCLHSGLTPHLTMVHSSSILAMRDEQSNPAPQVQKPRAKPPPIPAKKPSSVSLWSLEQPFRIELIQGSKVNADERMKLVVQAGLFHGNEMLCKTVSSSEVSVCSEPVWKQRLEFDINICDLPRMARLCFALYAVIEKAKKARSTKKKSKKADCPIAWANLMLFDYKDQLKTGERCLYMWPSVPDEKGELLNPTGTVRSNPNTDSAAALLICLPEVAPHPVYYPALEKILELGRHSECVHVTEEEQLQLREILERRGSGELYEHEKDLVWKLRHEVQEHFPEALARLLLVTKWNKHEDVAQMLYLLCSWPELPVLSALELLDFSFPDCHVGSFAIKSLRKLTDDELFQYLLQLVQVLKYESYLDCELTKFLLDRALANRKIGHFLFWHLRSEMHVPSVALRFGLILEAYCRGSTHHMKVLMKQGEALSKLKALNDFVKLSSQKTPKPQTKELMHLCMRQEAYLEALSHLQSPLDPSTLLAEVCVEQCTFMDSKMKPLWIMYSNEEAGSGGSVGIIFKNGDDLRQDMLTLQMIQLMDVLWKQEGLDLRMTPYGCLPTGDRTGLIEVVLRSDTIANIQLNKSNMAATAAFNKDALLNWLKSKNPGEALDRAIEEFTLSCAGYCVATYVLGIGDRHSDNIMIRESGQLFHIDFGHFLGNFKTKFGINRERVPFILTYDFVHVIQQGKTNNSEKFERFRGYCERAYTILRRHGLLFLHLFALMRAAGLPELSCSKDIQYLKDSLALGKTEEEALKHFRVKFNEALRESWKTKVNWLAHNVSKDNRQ
Sequence of PI3K p110δ/p85α (human) (P27986 whole entry partner, the tested form may be a part): as the sequence (P27986 whole entry partner) above

As to `COCCOc1cnc(-n2c(=O)n(C)c3cnc4cc(OC)c(-c5cnn(C)c5)cc4c32)c(F)c1` [Example 66, 1-[3-Fluoro-5-(2-methoxy-ethoxy)-2-pyridyl]-7-methoxy-3-methyl-8-(1-methylpyrazol-4-yl)imidazo-[4,5-c]quinolin-2-one], the “ratio of IC50 (ATM) and IC50 (PI3Kdelta), selectivity with respect to PI3Kdelta” value (“ratio … selectivity with respect to PI3Kdelta” for short) on PI3K p110δ/p85α (human) is “at least 2000 times”. Also, the “ratio of IC50 (ATM) and IC50 (PI3Kgamma), selectivity with respect to PI3Kgamma” value (“ratio … selectivity with respect to PI3Kgamma” below) on PI3K (p120γ) (human) is recorded as “at least 2000 times”. Besides, at PI3K p110α/p85α (human), the “ratio of IC50 (ATM) and IC50 (PI3Kalpha), selectivity with respect to PI3Kalpha” value (shortened to “ratio … selectivity with respect to PI3Kalpha”) was “at least 2000 times”.
Consider `COc1cc2ncc3c(c2cc1-c1cnn(C)c1)n(-c1ncc(OCCO)cc1F)c(=O)n3C` [Example 67, 1-[3-Fluoro-5-(2-hydroxy-ethoxy)-2-pyridyl]-7-methoxy-3-methyl-8-(1-methylpyrazol-4-yl)imidazo-[4,5-c]quinolin-2-one], for which the “ratio … selectivity with respect to PI3Kdelta” value at PI3K p110δ/p85α (human) is “at least 2000 times”. At PI3K (p120γ) (human), the “ratio … selectivity with respect to PI3Kgamma” value is on record as “at least 2000 times”. Further, the “ratio … selectivity with respect to PI3Kalpha” value at PI3K p110α/p85α (human) was “at least 2000 times”.
Take `COc1cc2ncc3c(c2cc1-c1cnn(C)c1)n(-c1ncc(OC(F)F)cc1F)c(=O)n3C` [Example 114, 1-(5-Difluoromethoxy-3-fluoropyridin-2-yl)-7-methoxy-3-methyl-8-(1-methyl-1H-pyrazol-4-yl)-1,3-dihydroimidazo[4,5-c]-quinolin-2-one]: the “ratio … selectivity with respect to PI3Kdelta” value at PI3K p110δ/p85α (human) is on record as “at least 2000 times”. Besides, on mTOR (human), the “ratio IC50 (ATM):IC50 (mTOR), selectivity with respect to mTOR” value was “at least 2000 times”. Further, the “ratio … selectivity with respect to PI3Kgamma” value on PI3K (p120γ) (human) is recorded as “at least 2000 times”. The “ratio … selectivity with respect to PI3Kalpha” value on PI3K p110α/p85α (human) is listed as “at least 2000 times”.
On to `COc1cc2ncc3c(c2cc1-c1c[nH]nc1C)n(-c1ncc(F)cc1F)c(=O)n3C` [Example 117, 1-(3,5-Difluoropyridin-2-yl)-7-methoxy-3-methyl-8-(3-methyl-1H-pyrazol-4-yl)-1,3-dihydroimidazo[4,5-c]-quinolin-2-one], for which the “ratio … selectivity with respect to PI3Kdelta” value on PI3K p110δ/p85α (human) is given as “at least 2000 times”. For the same molecule, the “ratio … selectivity with respect to PI3Kgamma” value at PI3K (p120γ) (human) is on record as “at least 2000 times”. For the same molecule, on PI3K p110α/p85α (human), the “ratio … selectivity with respect to PI3Kalpha” value is on record as “at least 2000 times”.
As to `COc1cc2ncc3c(c2cc1-c1cnn(C)c1)n(-c1cc2[nH]ccc2cn1)c(=O)n3C` [Example 120, 7-Methoxy-3-methyl-8-(1-methyl-1H-pyrazol-4-yl)-1-(1H-pyrrolo[3,2-c]pyridin-6-yl)-1,3-dihydroimidazo-[4,5-c]quinolin-2-one], the “ratio … selectivity with respect to PI3Kdelta” value on PI3K p110δ/p85α (human) is “at least 2000 times”. The “ratio IC50 (ATM):IC50 (mTOR), selectivity with respect to mTOR” value at mTOR (human) is on record as “at least 2000 times”. Moreover, the “ratio … selectivity with respect to PI3Kgamma” value on PI3K (p120γ) (human) is reported as “at least 2000 times”. The “ratio … selectivity with respect to PI3Kalpha” value at PI3K p110α/p85α (human) is “at least 2000 times”.
As for `COc1cc2ncc3c(c2cc1-c1cc[nH]n1)n(-c1cn(C)nc1C)c(=O)n3C` [Example 121, 1-(1,3-Dimethyl-1H-pyrazol-4-yl)-7-methoxy-3-methyl-8-(1H-pyrazol-3-yl)-1,3-dihydroimidazo[4,5-c]-quinolin-2-one], the “ratio IC50 (ATM):IC50 (mTOR), selectivity with respect to mTOR” value at mTOR (human) is on record as “at least 2000 times”.
On to `COc1cnc(-n2c(=O)n(C)c3cnc4cc(OC)c(-c5c[nH]nc5C)cc4c32)c(F)c1` [Example 122, 1-(3-Fluoro-5-methoxy-pyridin-2-yl)-7-methoxy-3-methyl-8-(3-methyl-1H-pyrazol-4-yl)-1,3-dihydro-imidazo[4,5-c]quinolin-2-one], for which, on PI3K p110δ/p85α (human), the “ratio … selectivity with respect to PI3Kdelta” value was “at least 2000 times”. Besides, on mTOR (human), the “ratio IC50 (ATM):IC50 (mTOR), selectivity with respect to mTOR” value is on record as “at least 2000 times”. For the same molecule, the “ratio … selectivity with respect to PI3Kgamma” value at PI3K (p120γ) (human) was “at least 2000 times”. On PI3K p110α/p85α (human), the “ratio … selectivity with respect to PI3Kalpha” value is “at least 2000 times”.
Consider `COc1cc2ncc3c(c2cc1-c1cnn(C)c1)n(-c1ncc(N2CCNCC2)cc1F)c(=O)n3C` [Example 123, 1-(3-Fluoro-5-piperazin-1-yl-pyridin-2-yl)-7-methoxy-3-methyl-8-(1-methyl-1H-pyrazol-4-yl)-1,3-dihydro-imidazo[4,5-c]quinolin-2-one], for which the “ratio … selectivity with respect to PI3Kdelta” value on PI3K p110δ/p85α (human) is recorded as “at least 2000 times”. In addition, on PI3K (p120γ) (human), the “ratio … selectivity with respect to PI3Kgamma” value was “at least 2000 times”. For the same molecule, the “ratio … selectivity with respect to PI3Kalpha” value at PI3K p110α/p85α (human) is given as “at least 2000 times”.
Consider `CCc1cncc(F)c1-n1c(=O)n(C)c2cnc3cc(OC)c(-c4cn(C)nn4)cc3c21` [Example 126, 1-(3-Ethyl-5-fluoropyridin-4-yl)-7-methoxy-3-methyl-8-(1-methyl-1H-1,2,3-triazol-4-yl)-1,3-dihydroimidazo-[4,5-c] quinolin-2-one], for which, on PI3K p110δ/p85α (human), the “ratio … selectivity with respect to PI3Kdelta” value is on record as “at least 2000 times”. Also, on mTOR (human), the “ratio IC50 (ATM):IC50 (mTOR), selectivity with respect to mTOR” value is recorded as “at least 2000 times”. Also, at PI3K (p120γ) (human), the “ratio … selectivity with respect to PI3Kgamma” value is reported as “at least 2000 times”. Further, the “ratio … selectivity with respect to PI3Kalpha” value on PI3K p110α/p85α (human) is “at least 2000 times”.
For the molecule `CNC(=O)c1cnc(-n2c(=O)n(C)c3cnc4cc(OC)c(-c5cnn(C)c5)cc4c32)c(F)c1` [Example 138, 5-Fluoro-6-[7-methoxy-3-methyl-8-(1-methyl-1H-pyrazol-4-yl)-2-oxo-2,3-dihydroimidazo[4,5-c]-quinolin-1-yl]-N-methyl-nicotinamid], at mTOR (human), the “ratio IC50 (ATM):IC50 (mTOR), selectivity with respect to mTOR” value is recorded as “at least 2000 times”.
Still for that read-out and setting: with `COc1cc2ncc3c(c2cc1-c1cnn(C)c1)n(-c1cn(C)nc1F)c(=O)n3C` [Example 141, 1-(3-Fluoro-1-methyl-1H-pyrazo1-4-yl)-7-methoxy-3-methyl-8-(1-methyl-1H-pyrazol-4-yl)-1,3-dihydro-imidazo[4,5-c]quinolin-2-one] the entry was “at least 2000 times”; with `COc1cc2ncc3c(c2cc1-c1cn(C)nc1C)n(-c1c(F)cncc1OC(F)F)c(=O)n3C` [Example 147, 1-(3-Difluoromethoxy-5-fluoropyridin-4-yl)-8-(1,3-dimethyl-1H-pyrazol-4-yl)-7-methoxy-3-methyl-1,3-dihydroimidazo[4,5-c]-quinolin-2-one], “at least 2000 times”.
Still for that read-out and setting: with `CCc1cnccc1-n1c(=O)n(C)c2cnc3cc(OC)c(-c4cnn(CC)c4)cc3c21` [Example 157, 8-(1-Ethyl-1H-pyrazol-4-yl)-1-(3-ethylpyridin-4-yl)-7-methoxy-3-methyl-1,3-dihydroimidazo[4,5-c] quinolin-2-one] the entry was “at least 2000 times”.
Turning to `COc1cc2ncc3c(c2cc1-c1cnn(C)c1)n(-c1ncc(OC2CNC2)cc1F)c(=O)n3C` [Example 205, 1-[5-(Azetidin-3-yloxy)-3-fluoropyridin-2-yl]-7-methoxy-3-methyl-8-(1-methyl-1H-pyrazol-4-yl)-1,3-dihydroimidazo[4,5-c]-quinolin-2-one], the “ratio … selectivity with respect to PI3Kdelta” value on PI3K p110δ/p85α (human) was “at least 2000 times”. Also, the “ratio … selectivity with respect to PI3Kgamma” value at PI3K (p120γ) (human) was “at least 2000 times”. Also, the “ratio … selectivity with respect to PI3Kalpha” value on PI3K p110α/p85α (human) is listed as “at least 2000 times”.
